This test has as its target T1, GST-tagged-Wee1 kinase (Homo sapiens, UniProt P30291).
T1 construct: purchased Carnabio (Carna Biosciences) 05-177
Nature of the test: Wee1 time-resolved fluorescence equilibrium binding assay (displacement of Oregon Green-labeled ATP-competitive kinase probe). The note with it: for Ki: read-out: Wee-1 inhibition (Ki). In short, it runs like this:
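Ki values derive from competitive displacement, under equilibrium, of a fast-reversible ATP-site Oregon Green kinase probe from GST-tagged Wee1, detected by time-resolved fluorescence.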

As a reminder, the Ki is a dissociation constant, usually derived from enzyme kinetics or from competition with a known ligand. For orientation: Kd means a measure of binding affinity in units of concentration. The low end stands for higher affinity, the high end for lower affinity.

T1 sequence (P30291 whole entry): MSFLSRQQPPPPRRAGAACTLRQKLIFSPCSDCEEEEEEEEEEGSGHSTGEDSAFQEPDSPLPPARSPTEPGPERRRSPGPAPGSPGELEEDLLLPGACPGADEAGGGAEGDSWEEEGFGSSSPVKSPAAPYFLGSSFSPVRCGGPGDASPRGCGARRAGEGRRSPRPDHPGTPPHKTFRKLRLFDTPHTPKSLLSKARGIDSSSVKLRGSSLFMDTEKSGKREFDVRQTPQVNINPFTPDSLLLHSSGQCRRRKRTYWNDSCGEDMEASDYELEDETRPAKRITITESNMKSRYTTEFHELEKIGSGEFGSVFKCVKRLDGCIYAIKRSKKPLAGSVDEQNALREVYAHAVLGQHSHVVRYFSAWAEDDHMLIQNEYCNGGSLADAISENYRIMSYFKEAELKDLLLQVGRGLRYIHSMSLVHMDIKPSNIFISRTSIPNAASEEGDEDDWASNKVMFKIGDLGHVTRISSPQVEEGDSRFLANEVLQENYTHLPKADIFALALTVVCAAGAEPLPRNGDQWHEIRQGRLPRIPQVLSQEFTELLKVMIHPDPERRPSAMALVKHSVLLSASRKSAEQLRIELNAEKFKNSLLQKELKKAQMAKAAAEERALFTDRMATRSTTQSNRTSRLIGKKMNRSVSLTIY

`O=c1c2cnc(Nc3ccc(-c4csc(N5CCOCC5)n4)cc3)nc2n2ccnc2n1-c1ccccc1Cl` [Example 360, 6-(2-chlorophenyl)-2-({4-[2-(morpholin-4-yl)-1,3-thiazol-4-yl]phenyl}amino)imidazo[1,2-a]pyrimido[5,4-e]pyrimidin-5(6H)-one]: the Ki lay within 0.01 to 0.1 µM. Same read-out and setting: with `Cc1ccc2nc(CCc3ccc(Nc4ncc5c(=O)n(-c6ccccc6Cl)c6nccn6c5n4)cc3)ccc2c1` [Example 361, 6-(2-chlorophenyl)-2-({4-[2-(6-methylquinolin-2-yl)ethyl]phenyl}amino)imidazo[1,2-a]pyrimido[5,4-e]pyrimidin-5(6H)-one] the figure was 0.01 to 0.1 µM. `O=C(NCCOCCOCCN1CCN(c2ccc(-c3cc4c(-c5cnc(C6(O)CCC6)s5)c(Cl)cnc4[nH]3)cc2)CC1)c1ccc2c(c1)C(=O)OC21c2cc(F)c(O)cc2Oc2cc(O)c(F)cc21` [fluorescent probe, N-(2-(2-(2-(4-(4-(5-chloro-4-(2-(1-hydroxycyclobutyl)thiazol-5-yl)-1H-pyrrolo[2,3-b]pyridin-2-yl)phenyl)piperazin-1-yl)ethoxy)ethoxy)ethyl)-2′,7′-difluoro-3′,6′-dihydroxy-3-oxo-3H-spiro[isobenzofuran-1,9′-xanthene]-5-carboxamide, reference compound] yielded a Kd of 0.137 µM.

The record behind these values is patent US8710065B2, “Tricyclic inhibitors of kinases” (AbbVie Inc., priority 2011, dated 2014).
